# From patent US20210206763A1, “Anti-Proliferative Agents” (FEMTOGENIX LIMITED, priority 2015, published 2021)
# Experiments:
# [1] = tested on: MS1 DNA fragment; assay: DNA footprinting; assay type: binding; settings: overnight incubation of ligand-DNA complexes
# Method: (§1) The DNA sequence selectivity profile of selected molecules was investigated using a modification of the previously established DNA footprinting assay ^[32]. Following an overnight incubation of the ligand-DNA complexes, the mixture was mixed with strand separation buffer containing 10 mM EDTA, 10 mM NaOH, 0.1% bromophenol blue, 80% formamide and incubated at 100° C. for 3 min. The mixture was then immediately cooled on ice and run on an 8% denaturing gel. […] 93 (solid black line) also interacts with two further sites. The PBD dimer Talirine (green) illustrates a different binding pattern to 73, 76, 81, 88 and 93. Strong DNA footprints are represented by solid lines and weaker footprints are represented by hatched lines. […] Strong DNA footprints are represented by solid lines, and weaker footprints are represented by hatched lines
# (§2) Footprinting reactions were performed as previously described ^[36] using the DNA fragments HexA and HexB, which together contain all 64 symmetrical hexanucleotide sequences^[6], and MS1 that contains all possible […] tetranucleotide sequences ^[38]. The DNA fragments were obtained by cutting the parent plasmids with HindIII and SacI (for HexA and MS1) or EcoRI and PstI (for HexB), and were labelled at the 3′-end of the HindIII or EcoRI sites with [α-^32P]dATP using reverse transcriptase or exo-Klenow fragment. After gel purification, the radiolabelled DNA was dissolved in 10 mM Tris-HCl pH 7.5 containing 0.1 mM EDTA, at a concentration of about 10 c.p.s per μL as determined on a hand held Geiger counter. 1.5 μL of radiolabelled DNA was mixed with 1.5 μL ligand that had been freshly diluted in 10 mM Tris-HCl pH 7.5, containing 10 mM NaCl. The complexes were left to equilibrate for at least 12 hours before digesting with 2 μL DNase I (final concentration about 0.01 units/mL). The reactions were stopped after 1 minute by adding 4 μL of formamide containing 10 mM EDTA and bromophenol blue (0.1% w/v). The samples were then heated at 100° C. for 3 minutes before loading onto 8% denaturing polyacrylamide gels containing 8 M urea. Gels were fixed in 10% acetic acid, transferred to 3MM paper, dried and exposed to a phosphor screen overnight, before analysing with a Typhoon phosphorimager
# [2] = tested on: HexA DNA fragment; assay: DNA footprinting; assay type: binding; settings: overnight incubation of ligand-DNA complexes
# Method: as §1, §2
# [3] = tested on: MCF-7; assay: In vitro cytotoxicity of free payloads, MTT assay; assay type: cell-based; settings: Homo sapiens, MCF7; 72 hour incubation
# Method: (§3) The in vitro cytotoxicity of compounds 73, 76, 81, 88 and 93 were evaluated in the JIMT-1, MCF-7, MDA-MB-453 and SK-BR-3 (all breast cancer) cell lines using the standard MIT assay for a 72 hour incubation period (Table 3).
# (§4) Tumor cell lines were maintained in RPMI1640 medium supplemented with 10% heat-inactivated fetal bovine serum, 2 mM L-glutamine and 1 mM sodium pyruvate. 1800 cells per well were seeded in a volume of 180 μl in a 96-well flat bottom polystyrene plate. The cells were allowed to adhere overnight at 37° C. in a CO2 incubator. Ligands were initially formulated in DMSO, and stocks stored at −80° C. They were then further formulated at lox concentration in RPMI1640 medium. 20 ul of diluted samples were added into each treatment well. On each plate, blank wells with no cells, and untreated wells containing cells, were included. Plates were then cultured at 37° C. in a CO2 incubator for 72 hrs. Cytotoxicity was evaluated using a tetrazolium salt-based assay, the MIT assay. After 72 hours, the supernatant was removed from each well and 200 μl of a sterile filtered 500 μg/ml MTT solution in water added to each well. The plates were then incubated at 37° C. in a CO2 incubator for 4 hrs. The supernatant was then removed and the formazan crystals formed solubilized by adding 15(411 of DMSO to each well. The plate was then read on a plate reader at 540 nm, and percentage cell survival calculated as follows: ((mean absorbance treated wells at concentration x−mean absorbance blank wells)÷(mean absorbance untreated wells at concentration x−mean absorbance blank wells))×100. Data were plotted as concentration in nM vs. % cell survival in Microsoft Excel, and IC50 values (concentration where cell survival is reduced by a half) were determined from the graph.
# [4] = tested on: MDA-MB-453; assay: In vitro cytotoxicity of free payloads, MTT assay; assay type: cell-based; settings: Homo sapiens, 72 hour incubation
# Method: as §3, §4
# [5] = tested on: SK-BR-3; assay: In vitro cytotoxicity of free payloads, MTT assay; assay type: cell-based; settings: Homo sapiens, 72 hour incubation
# Method: as §3, §4
# [6] = tested on: JIMT-1; assay: In vitro cytotoxicity of free payloads, MTT assay; assay type: cell-based; settings: Homo sapiens, 72 hour incubation
# Method: as §3, §4
Compound,number of preferred binding sites observed in MS1 [1],number of preferred binding sites observed in HexA [2],IC50 [3],IC50 [4],IC50 [5],IC50 [6],"further sequences bound in MS1 not occupied by 73, 76, 81 and 88 [1]"
"COc1cc2c(cc1OCCCC(=O)Nc1cc(C(=O)Nc3ccc(-c4cc(C(=O)Nc5ccc(C)cc5)n(C)c4)cc3)n(C)c1)N=C[C@@H]1CCCCN1C2=O [Compound 76, (S)-4-(4-((2-Methoxy-12-oxo-6a,7,8,9,10,12-hexahydrobenzo[e]pyrido[1,2-a][1,4]diazepin-3-yl)oxy)butanamido)-1-methyl-N-(4-(1-methyl-5-(p-tolylcarbamoyl)-1H-pyrrol-3-yl)phenyl)-1H-pyrrole-2-carboxamide]",six,five,0.53 nM,0.19 nM,0.29 nM,0.43 nM,–
"COc1cc2c(cc1OCCCC(=O)Nc1cc(C(=O)Nc3ccc(-c4cn(C)c(C(=O)Nc5ccccc5)n4)cc3)n(C)c1)N=C[C@@H]1CCCCN1C2=O [Compound 88, (S)-4-(4-(4-(4-((2-Methoxy-12-oxo-6a,7,8,9,10,12-hexahydrobenzo[e]pyrido[1,2-a][1,4]diazepin-3-yl)oxy)butanamido)-1-methyl-1H-pyrrole-2-carboxamido)phenyl)-1-methyl-N-phenyl-1H-imidazole-2-carboxamide]",six,five,0.6 nM,0.13 nM,0.06 nM,0.37 nM,–
"COc1cc2c(cc1OCCCC(=O)Nc1cn(C)c(C(=O)Nc3ccc(-c4cc(C(=O)Nc5ccccc5)n(C)c4)cc3)n1)N=C[C@@H]1CCCCN1C2=O [Compound 93, (S)-4-(4-((2-Methoxy-12-oxo-6a,7,8,9,10,12-hexahydrobenzo[e]pyrido[1,2-a][1,4]diazepin-3-yl)oxy)butanamido)-1-methyl-N-(4-(1-methyl-5-(phenylcarbamoyl)-1H-pyrrol-3-yl)phenyl)-1H-imidazole-2-carboxamide]",–,–,2 nM,0.18 nM,0.09 nM,0.37 nM,two
"COc1cc2c(cc1OCCCC(=O)Nc1cc(C(=O)Nc3ccc(-c4cc(C(=O)Nc5ccccc5)n(C)c4)cc3)n(C)c1)N=C[C@@H]1CCCCN1C2=O [Compound 73, (S)-4-(4-((2-Methoxy-12-oxo-6a,7,8,9,10,12-hexahydrobenzo[e]pyrido[1,2-a][1,4]diazepin-3-yl)oxy)butanamido)-1-methyl-N-(4-(1-methyl-5-(phenylcarbamoyl)-1H-pyrrol-3-yl)phenyl)-1H-pyrrole-2-carboxamide]",six,five,0.42 nM,0.2 nM,0.27 nM,0.33 nM,–
"COC(=O)c1ccc(NC(=O)c2cc(-c3ccc(NC(=O)c4cc(NC(=O)CCCOc5cc6c(cc5OC)C(=O)N5CCCC[C@H]5C=N6)cn4C)cc3)cn2C)cc1 [Compound 81, Methyl (S)-4-(4-(4-(4-(4-((2-methoxy-12-oxo-6a,7,8,9,10,12-hexahydrobenzo[e]pyrido[1,2-a][1,4]diazepin-3-yl)oxy)butanamido)-1-methyl-1H-pyrrole-2-carboxamido)phenyl)-1-methyl-1H-pyrrole-2-carboxamido)benzoate]",six,five,1.4 nM,0.42 nM,0.33 nM,0.5 nM,–
